Laboratory results from patent publication US8367737B2, “Method of using biothionol and biothionol-like compounds as anti-angiogenic agents” (Southern Research Institute, priority 2007, dated 2013).
Structures can show the parent of a compound that is named as a salt.

How the values were obtained:
[1] = tested on: Endothelial cells (HUVEC); test: Endothelial cell migration assay; type: cell-based; settings: Homo sapiens, read-out: Inhibition in Endothlial migration
Method: Endothelial cell migration is a key step of the angiogenesis process, which is crucial for on-site recruitment of blood vessel formation. The trans-well filter/inserts chamber of Biocoat Endothelial Cell Migration Angiogenesis System (BD Biosciences) is used for endothelial cell migration assay, which is a 24-Transwell chamber plate containing 3-μm pore size inserts coated with human fibronectin. The inserts are incubated at 37° C. with 0.1% bovine serum albumin containing endothelial cell basal medium for 1 hour. Endothelial cells (HUVEC) are starved with 0.1% bovine serum albumin in endothelial cell basal medium for 4 to 5 hours before the cell harvest and then seeded (1×10^5 per well) in upper chambers of the Transwell plate with various treatments in 100 ul of 0.1% bovine serum albumin in endothelial cell basal medium. The full growth medium that contains various chemoattractants is added in the lower chambers. The cells are allowed to migrate for 22±1 hours at 37° C. Unmigrated cells at the inside of the inserts are carefully removed with a Q-tip. Migrated cells at the lower part of the Transwell inserts are then fixed with 4% paraformaldehyde, stained with Hoechst 33342, and photographed under a fluorescent microscope. Three microscopic view fields of each filter/insert are analyzed for the number of migrated cells. Triplicate filter/insert chamber cultures are carried for each test concentration and control.

[2] = tested on: Chicken embryo chorioallantoic membrane; test: Chick chorioallantoic membrane (CAM) assay; type: in vivo; settings: 10 μg; vascular density index
Excerpt: Chicken embryo chorioallantoic membrane provides an ideal in vivo model for the physiologic process of angiogenesis. Angiogenic modulators applied on methylcellulose discs placed on top of chicken embryo chorioallantoic membrane are able to alter the development of new blood vasculature. See Staton et al, Current Methods for Assaying Angiogenesis in vitro and in vivo, INT. J. EXP. PATHOL., 85:233-48 (2004), which is incorporated herein by reference in its entirety. The angiogenesis chorioallantoic membrane assay is used for ex vivo evaluation of the anti-angiogenic potential of synthetic compounds. Fertilized chicken eggs are incubated at 37.5° C. in a humidified egg incubator with forced air circulation. On embryo Day 3, eggs are cracked open and embryos are transferred into […] Petri plates to continue their development in a cell culture incubator at 37.5° C. Pre-made methylcellulose discs in about 2 mm in diameter are gently implanted on top of embryo chorioallantoic membrane on embryonic Day 5 and then testing compound in solution or control vehicle is applied on top of methylcellulose disc. The embryos are incubated for two more days in the cell culture incubator. The chorioallantoic membranes are examined and quantitatively analyzed for new blood vessel formation at embryonic Day 7. The treatment effects on angiogenesis are evaluated by determining vascular density index (VDI) of each CAM with viable chicken embryos. The VDI represents the number of intersections made by blood vessels with three equidistant concentric circles on the area covered by methylcellulose discs by using Image Pro Plus software. The data are expressed as average VDI based on the quantitative analysis for each treatment group (N≧5) with stander deviation.

[3] = tested on: Endothelial cells (HUVEC); test: Endothelial tube formation assay; type: cell-based; settings: Homo sapiens, read-out: Inhibition in Endothlia Tube-Formation
Method: Human endothelial cells are cultured in vitro on extracellular matrix, which stimulates the attachment and differentiation of endothelial cells into tubules. The endothelial tube formation assay is based on this phenomenon. Endothelial cells (HUVEC) are seeded (1.5×10^4 per well) in a 96-well plates coated with extracellular matrix and treated with the target compounds at different concentrations with the full growth medium in triplicate. The cells are allowed to form endothelial tubes at 37° C. for about 18 hours and photographed under an inverted light microscope. The tubule lengths are quantified using image analysis software, Image-Pro Plus (Media Cybernetics, Inc., Silver Spring, Md.). Data are expressed as average tube lengths of three view fields for each well and triplicate wells for each treatment condition. IC50 values are calculated based on the dose curve.

lung fibroblasts LL47 = test: Cell proliferation assay (CellTiter-Glo), fibroblasts; type: cell-based; settings: Homo sapiens, Fibroblast; 72 hours of treatment, growth medium
Method: (§1) Human primary cell lines, arterial endothelia, such as HAEC and HPAEC, venous endothelia HUVEC (from Cambrex BioScience Rockland Inc.), and lung fibroblasts LL47 (from the American Type Culture Collection) are cultured by following the instruction and used to evaluate the target compounds for their differential activity against human endothelia verses fibroblasts by CellTiter-Glo Luminescent Cell viability Assay. This assay, generating luminescent signals, is based on quantification of ATP levels in cell cultures. Amount of ATP produced in cell culture reflects the number of viable cells. […] Cells are seeded in 96-well plates with their growth medium, about 5×10^3 cell per well. After 24 hours, various doses of the target compounds are added to the cultures, having four replicates for each dose. After 72 hours of treatment, CellTiter-Glo reagent is added to the cultures following the manufacturer's instruction and luminescence is measured. The control groups are given DMSO vehicle only. IC50s of target compounds for endothelia and fibroblasts proliferation in their growth medium are determined based on the dose response curve and plotted against the range of concentrations.

[4] = tested on: arterial endothelia, such as HAEC and HPAEC; test: Cell proliferation assay (CellTiter-Glo), arterial endothelia; type: cell-based; settings: Homo sapiens; 72 hours of treatment, growth medium
Method: as §1

venous endothelia HUVEC = test: Cell proliferation assay (CellTiter-Glo), venous endothelia; type: cell-based; settings: Homo sapiens, 72 hours of treatment, growth medium
Method: as §1

CCCCc1oc2ccccc2c1C(=O)c1cc(I)c(OCCN(CC)CC)c(I)c1 [Amiodarone hydrochloride]
inhibition at 2 µM [1]: 36%
inhibition at 8 µM [1]: 38%
Inhibition in CAM Assay [2]: 27%
inhibition at 2 µM [3]: 33%
inhibition at 8 µM [3]: 33%

Oc1c(Cl)cc(Cl)cc1Sc1cc(Cl)cc(Cl)c1O [Bithionol]
IC50 (lung fibroblasts LL47): 10.5 µM
IC50 [4]: 2 µM
inhibition at 2 µM [1]: 5%
inhibition at 8 µM [1]: 100%
Inhibition in CAM Assay [2]: 30%
inhibition at 2 µM [3]: 19%
inhibition at 8 µM [3]: 38%
IC50 (venous endothelia HUVEC): 6 µM

CN(C)CCCN1c2ccccc2CCc2ccc(Cl)cc21 [Clomipramine hydrochloride]
inhibition at 2 µM [1]: 58%
inhibition at 8 µM [1]: 63%
Inhibition in CAM Assay [2]: 19%
inhibition at 2 µM [3]: 12%
inhibition at 8 µM [3]: 26%

OCCN1CCN(CCCN2c3ccccc3Sc3ccc(Cl)cc32)CC1 [Perphenazine]
IC50 (lung fibroblasts LL47): 10.8 µM
IC50 [4]: 4.2 µM
inhibition at 2 µM [1]: 43%
inhibition at 8 µM [1]: 46%
inhibition at 2 µM [3]: 7%
inhibition at 8 µM [3]: 22%
IC50 (venous endothelia HUVEC): 11.1 µM

Cc1nc2sccn2c(=O)c1CCN1CCC(=C(c2ccc(F)cc2)c2ccc(F)cc2)CC1 [Ritanserin]
IC50 (lung fibroblasts LL47): > 50 µM
IC50 [4]: 11 µM
inhibition at 2 µM [1]: 55%
inhibition at 8 µM [1]: 65%
Inhibition in CAM Assay [2]: 21%
inhibition at 2 µM [3]: 11%
inhibition at 8 µM [3]: 33%
IC50 (venous endothelia HUVEC): 10.5 µM

CC(C)(C)c1ccc(C(O)CCCN2CCC(C(O)(c3ccccc3)c3ccccc3)CC2)cc1 (centres unmarked) [Terfenadine]
IC50 (lung fibroblasts LL47): 7 µM
IC50 [4]: 3 µM
inhibition at 2 µM [1]: 34%
inhibition at 8 µM [1]: 100%
Inhibition in CAM Assay [2]: 28%
inhibition at 2 µM [3]: 20%
inhibition at 8 µM [3]: 43%
IC50 (venous endothelia HUVEC): 5.5 µM
